Measurements: ChEMBL document CHEMBL1123040, “Molecular mechanism of action of 5,6-dihydroxytryptamine. Synthesis and biological evaluation of 4-methyl-, 7-methyl-, and 4,7-dimethyl-5,6-dihydroxytryptamines” (J Med Chem, 1985)

Tests used:
[1] = target: T1, Sodium-dependent serotonin transporter (Rattus norvegicus, UniProt P31652); test: Inhibitory activity against incorporation of [3H]5-HT transporter uptake into the differentiated N-2a cells.; assay type: cell-based
[2] = target: T1, Sodium-dependent serotonin transporter; test: Inhibitory activity against incorporation of Serotonin transporter uptake into the differentiated N-2a cells.; assay type: cell-based

T1 sequence (P31652 whole entry): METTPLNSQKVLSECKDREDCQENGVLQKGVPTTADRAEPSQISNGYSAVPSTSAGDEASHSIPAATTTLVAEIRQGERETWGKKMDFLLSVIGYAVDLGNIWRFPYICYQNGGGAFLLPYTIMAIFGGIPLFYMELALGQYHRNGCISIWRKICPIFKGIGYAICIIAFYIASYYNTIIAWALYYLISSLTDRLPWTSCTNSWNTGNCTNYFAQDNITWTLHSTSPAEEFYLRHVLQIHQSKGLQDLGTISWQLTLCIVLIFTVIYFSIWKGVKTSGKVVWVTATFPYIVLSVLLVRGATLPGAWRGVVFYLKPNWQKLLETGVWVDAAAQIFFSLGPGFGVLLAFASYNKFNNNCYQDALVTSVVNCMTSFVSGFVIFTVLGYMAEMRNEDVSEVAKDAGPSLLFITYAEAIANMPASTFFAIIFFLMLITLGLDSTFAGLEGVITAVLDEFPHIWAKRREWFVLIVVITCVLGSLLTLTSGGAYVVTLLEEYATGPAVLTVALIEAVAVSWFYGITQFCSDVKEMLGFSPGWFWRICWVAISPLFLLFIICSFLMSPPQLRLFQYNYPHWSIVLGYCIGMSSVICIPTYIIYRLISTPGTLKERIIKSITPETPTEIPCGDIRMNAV

SMILES | IC50 [1] [µM] | IC50 [2] [µM]
Cc1c(O)c(O)c(C)c2c(CCN)c[nH]c12 | 19.7 | –
Cc1c(O)c(O)cc2[nH]cc(CCN)c12 | 23 | –
NCCc1c[nH]c2cc(O)c(O)cc12 | – | 6
Cc1c(O)c(O)cc2c(CCN)c[nH]c12 | 51.8 | –
